The record followed here is patent publication US20230340498A1, “COMPOSITIONS AND METHODS FOR INDUCIBLE ALTERNATIVE SPLICING REGULATION OF GENE EXPRESSION” (The Children's Hospital of Philadelphia, priority 2020, published 2023).

In the test the test system is SMN2-on minigene. Put plainly: SMN2-on cassette Firefly luciferase reporter assay in transfected HEK293 cells. The class given is cell-based, Human. As to conditions: HEK293 cells, varying doses. As to the method: Cell culture, transfection, and LMI070/RG7800 treatment. Human embryonic kidney (HEK293) cells (obtained from CHOP Research Vector Core stock) were maintained in DMEM media containing 10% Fetal Bovine Serum (FBS), 1% L-Glutamine and 1% penicillin/streptomycin at 37° C. with 5% CO2. Cells were cultured in 24 well plates and transfected at 80-90% confluence using Lipofectamine 2000 transfection reagent, according to the manufacturer’s protocol. For all experiments, 4 hours after plasmid transfection, cells were treated with LMI070 (MedChemExpress, HY-19620, suspended in DMSO) or RG7800 (MedChemExpress, HY-101792A, suspended in H2O) at the indicated concentrations. Cells were tested for mycoplasma by Research Vector Core. None of the cells used in the study were listed in ICLAC database of commonly misidentified cell lines.
In vitro luciferase assays. HEK293 cells were cultured in DMEM (10% FBS (v/v), 1% Pen/ Strep (v/v), and 1% L-glutamine (v/v) in a 24-well plate. At 70%-80% confluence, cells were co-transfected with the Xon.Firefly luciferase cassettes (0.3 µg/well) and a SV40p-Renilla luciferase cassette as transfection control (0.02 µg/well). Four hours after transfections cells were treated either with LMI070 or RG7800 at indicated concentrations. At 24 h after transfection, cells were rinsed with ice-cold PBS and Renilla and Firefly luciferase activities were assessed using the Dual-Luciferase Reporter Assay System (Promega) according to the manufacturer’s instructions. Luminescent readouts were obtained with a Monolight 3010 luminometer (Pharmigen). Relative light units (RLUs) were calculated as the quotient of […] RLUs and results expressed relative to mock treated control cells.
For this, SMN2-on cassettes were generated to provide drug-induced reporter gene expression. HEK293 cells were transfected with the SMN2-on expression cassettes and luciferase activity evaluated in response to varying doses of LMI070 or RG7800. […]

For `CCc1nc(C)cn2nc(-c3cc(=O)n4cc(C5CCN(C)CC5)cc(C)c4n3)cc12` [RG7800], the “luciferase activity from the SMN2-on minigene” value was “induced luciferase activity”.
